In patent publication US20230270764A1, “COMPOSITION COMPRISING CANNABINOIDS, TERPENES, AND FLAVONOIDS FOR TREATING DEPRESSION” (priority 2020, published 2023):

System: LPS-injected mice
Assay: Sucrose preference test in the LPS-induced model of depression
Format: in vivo
Conditions: Example 9; male C57BL/6, i.p. 1 h before LPS 330 µg/kg; mg/kg: CBD 30; CBDA 1 or 5; BCP 50; kaempferol 30; CBD 30 plus THC 10; CBD 30 plus kaempferol 30
Source text: In a preliminary screening experiment, subjects were 4-6 months-old male C57BL/6 (Jackson Laboratories, USA). Animals were housed 2-3/cage, kept in an air-conditioned room (23+°C) and given ad libitum access to food and water. The mice were kept in a reversed light/dark cycle, with lights off from 7 a.m. to 7 p.m. All experiments were approved by the Hebrew University of Jerusalem Ethics Committee on Animal Care and Use. In preparation for the Sucrose Preference Test, mice were habituated 2-3 times to sucrose drinking, by exposing them overnight to two graduated tubes, one containing water and the other containing sucrose solution (1%, w/v). Water and sucrose consumption were measured, and sucrose preference was computed by dividing the amount of sucrose consumed by drinking (ml sucrose) by the total drinking volume (ml of sucrose + water). One day later, the weight of the mice and the food in their cages was weighed for later analysis of food consumption and body weight changes. Groups of mice were injected intraperitoneally (i.p.) with either vehicle (cremophor, ethanol and PBS, 1:1:18 (v/v/v)) or a cannabinoid-based formulation (by itself or with another cannabinoid, or a terpene or a flavonoid). One hour later, each of these groups was injected with LPS (330 µg/kg). All injections were administered at a dose of 10 ml/kg. Four hours following the LPS injection, mice were tested in the Open-Field Test. In this test, the measured locomotor activity reflects not only motor capacity, but particularly the innate motivation for spatial exploration (which increases the distance travelled) and the anxiety level (which reduces the distance travelled, in general, and particularly the distance and time spent in the center of the open field). Each subject was placed near one of the walls of a white 50 X 50 cm^2 arena with 40 cm high walls. The distance travelled (cm), the velocity of the movement (cm/second), the time spent (seconds), distance travelled (cm) in the center area of the arena, as well as the number of entries from the perimeter area into the center of the arena were automatically measured over a 4-minute period, using EthoVision XT video tracking system and software (Noldus, The Netherlands). Twenty-four hours after the LPS injection, mice were tested in the Social Exploration Test. […] Social exploration, defined as the time of near contact between the nose of the subject and the juvenile in the small cage was recorded for 4 min, using computerized in-house software. Sucrose preference was assessed, as described above, between 8 to 27 hr post LPS injection. Body weight and weight of the food were measured two hours before the LPS injection, and again after 24 hours, and the change in body weight and food consumption were calculated. […]

For `C=C1CC/C=C(\C)CC[C@@H]2[C@@H]1CC2(C)C` [β-caryophyllene], the “sucrose preference compared with vehicle-treated groups” value was “significantly increased sucrose preference”.
